The source made the active and inactive calls.

Assay [1] concerns the target T1, Short transient receptor potential channel 4 (Mus musculus, UniProt Q9QUQ5).
T1 sequence (Q9QUQ5 whole entry): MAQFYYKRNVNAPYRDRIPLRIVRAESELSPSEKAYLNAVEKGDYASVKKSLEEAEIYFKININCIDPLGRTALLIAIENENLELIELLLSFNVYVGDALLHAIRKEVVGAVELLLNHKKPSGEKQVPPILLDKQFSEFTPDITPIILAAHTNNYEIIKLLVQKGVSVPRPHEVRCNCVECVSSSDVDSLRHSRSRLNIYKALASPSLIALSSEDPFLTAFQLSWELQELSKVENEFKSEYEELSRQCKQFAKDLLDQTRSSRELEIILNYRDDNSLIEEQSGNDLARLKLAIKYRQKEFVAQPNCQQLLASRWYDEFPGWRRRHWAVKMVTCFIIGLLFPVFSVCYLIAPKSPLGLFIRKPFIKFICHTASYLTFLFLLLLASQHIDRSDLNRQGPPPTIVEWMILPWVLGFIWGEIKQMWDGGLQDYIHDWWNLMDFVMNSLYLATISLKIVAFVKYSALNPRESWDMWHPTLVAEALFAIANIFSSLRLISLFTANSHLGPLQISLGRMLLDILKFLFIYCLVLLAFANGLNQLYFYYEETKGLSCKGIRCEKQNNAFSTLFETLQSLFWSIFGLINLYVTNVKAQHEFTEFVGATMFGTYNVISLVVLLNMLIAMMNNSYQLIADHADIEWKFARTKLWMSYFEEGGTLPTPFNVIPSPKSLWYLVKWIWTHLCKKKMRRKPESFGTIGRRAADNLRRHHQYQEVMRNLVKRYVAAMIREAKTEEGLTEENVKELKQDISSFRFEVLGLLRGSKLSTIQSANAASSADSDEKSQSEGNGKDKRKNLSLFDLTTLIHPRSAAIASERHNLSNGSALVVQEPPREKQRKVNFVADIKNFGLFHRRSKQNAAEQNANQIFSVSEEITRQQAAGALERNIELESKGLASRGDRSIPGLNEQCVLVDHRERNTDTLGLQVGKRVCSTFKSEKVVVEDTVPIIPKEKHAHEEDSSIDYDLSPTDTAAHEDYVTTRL
The assay can be described thus: mouse TRPC4 channel inhibitors, dose response, cell-based, HEK293 TRPC4/mu-opioid, Fluo-4 calcium (AID 434942).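 Note: potency of inhibitors blocking the TRPC4 calcium response.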 The assay is classed as functional.

A short description of assay [2]: Luminescence Cell-Based Dose Confirmation HTS to Identify Inhibitors of Platelet Dense Granule Release. [Related pubchem assays: 1663 (Primary HTS), 1678 (Summary of Project)]. The assay is classed as functional.
The target of assay [3] is Luciferin 4-monooxygenase (Photinus pyralis, UniProt P08659). In words: firefly luciferase enzyme inhibitors, dose response, biochemical, luminescence (AID 1891).
Assay [4] deals with FAD-linked sulfhydryl oxidase ALR (Homo sapiens, UniProt P55789). The assay can be described thus: inhibitors of human ALR sulfhydryl oxidase, dose response, biochemical, H2O2 detection, luminescence, cherry-pick (AID 493248).
Assay [5] in a line: Luminescence Cell-Based Dose Retest to Confirm Inhibitors of Cancer Stem Cells. [Related pubchem assays (depositor defined):AID2717, AID2721]. In kind it is functional. To be noted: Homo sapiens.
Assay [6] can be described thus: cytotoxicity toward DRD oncogenic fibroblasts, dose response, cell-based, non-viral oncogenic, luminescence (AID 1934). The assay is classed as functional. To be noted: Homo sapiens.
The test system of assay [7] is BJ. In words: cytotoxicity toward BJ-TERT-LT-ST fibroblasts, dose response, cell-based, RAS-independent, luminescence (AID 1935).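 Note: BJ fibroblasts immortalized with TERT plus LT and ST oncogenes.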 The assay is classed as functional. Conditions: Homo sapiens.
Assay [8] deals with BJ. The assay can be described thus: cytotoxicity toward BJ-TERT fibroblasts, dose response, cell-based, RAS-independent, luminescence (AID 1933). The assay is classed as functional. Conditions: Homo sapiens.
The test system of assay [9] is BJ. In words: cells. The assay is classed as functional, cell-based. Conditions: Homo sapiens.
Assay [10] in a line: growth suppression of PTEN-null colon cells, dose response, cell-based, HCT116 PTEN knockout (AID 1047).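 Note: HCT116 colon tumor cells with PTEN knocked out; cells exposed to compound for 60 hours before readout; potency for loss of cell viability measured by luminescence.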 The assay is classed as functional.
Assay [11] in a line: inhibitors of HIV Env-driven cell fusion, dose response, cherry-pick (AID 652057). The assay is classed as functional, cell-based.
Assay [12] in a line: inhibitors of clade B AD8 Env fusion, dose response, cell-based, cherry-pick (AID 652062).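 Note: luciferase signal from cell-cell fusion driven by HIV-1 clade B AD8 Env; potency is for inhibitors of fusion seen as a drop in luminescence.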 In kind it is functional.
The test system of assay [13] is INS1. The assay can be described thus: beta cell apoptosis inhibitors, cytokine rescue, dose response, luminescence, retest (AID 449756).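 Note: cell death triggered by IL-1 beta plus TNF-alpha plus IFN-gamma mixture; protective hits raise ATP signal compared with cytokine alone wells.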 In kind it is functional, cell-based. Conditions: Rattus norvegicus.
Assay [14] in a line: P. falciparum Dd2 growth inhibitors, dose response, SYBR Green, cherry-picked samples (AID 1159567). The assay is classed as functional, cell-based.

Chain of FAD-linked sulfhydryl oxidase ALR (P55789 whole entry): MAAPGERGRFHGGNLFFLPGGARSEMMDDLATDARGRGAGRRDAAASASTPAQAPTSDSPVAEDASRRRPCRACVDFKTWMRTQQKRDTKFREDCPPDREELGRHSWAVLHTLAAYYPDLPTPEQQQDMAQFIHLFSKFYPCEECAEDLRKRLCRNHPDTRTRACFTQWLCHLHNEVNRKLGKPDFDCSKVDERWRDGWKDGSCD
Chain of Luciferin 4-monooxygenase (P08659 whole entry): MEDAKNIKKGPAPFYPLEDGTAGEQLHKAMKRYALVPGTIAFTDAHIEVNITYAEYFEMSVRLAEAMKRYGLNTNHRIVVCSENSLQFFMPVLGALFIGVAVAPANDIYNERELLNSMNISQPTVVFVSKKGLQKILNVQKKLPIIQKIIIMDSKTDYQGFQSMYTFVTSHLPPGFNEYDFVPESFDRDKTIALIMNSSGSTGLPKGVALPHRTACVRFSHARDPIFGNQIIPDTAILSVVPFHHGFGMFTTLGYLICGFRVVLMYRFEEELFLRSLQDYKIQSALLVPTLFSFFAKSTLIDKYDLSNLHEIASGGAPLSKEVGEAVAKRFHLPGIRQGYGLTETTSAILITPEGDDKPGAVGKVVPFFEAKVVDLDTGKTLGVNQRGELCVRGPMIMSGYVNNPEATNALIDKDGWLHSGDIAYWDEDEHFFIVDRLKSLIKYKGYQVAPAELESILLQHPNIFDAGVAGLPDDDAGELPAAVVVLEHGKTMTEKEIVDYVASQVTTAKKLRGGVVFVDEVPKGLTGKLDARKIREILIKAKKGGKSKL

As to `Cc1c(CCOC(=O)c2cccc([N+](=O)[O-])c2)sc[n+]1CC(=O)c1ccccc1`, the EC50 in assay [1] was 6.68 µM (active).

Take `Cc1cc(C)c2nc(O)c(CN(Cc3cccnc3)C(S)=NCCCN(C)C)cc2c1`: the EC50 in assay [1] is 2.37 µM (active).

As for `COC(=O)Cc1c(C)c2ccc(OCC(=O)N3CCC(C)CC3)c(C)c2oc1=O`, the EC50 was 22.1 µM (active) in assay [2] and > 112 µM (not active) in assay [3].

In the case of `Cc1nn(-c2nc3ccccc3n2Cc2ccccc2)c2c1C(=O)CC(C)(C)C2`, the EC50 in assay [1] is 2.11 µM (active).

For `Clc1ccc2c(c1)-c1nnc(Br)n1-c1ccccc1S2`, the concentration giving a half-maximal response (EC50) in assay [1] is 5.96 µM (active).

`CC1=NN(C(C#N)c2cccc([N+](=O)[O-])c2)C(C)(C)C1` (centres undefined): the EC50 in assay [2] and in assay [3] was > 112 µM (not active) each time.

Regarding `O=C(O)c1cccc(NC(=O)c2cc(-c3cccc(Cl)c3)nc3ccccc23)c1`, the AC50 in [4] was 0.01 µM (active).

Regarding `O=C(NCc1ccccc1)/C(NC(=O)c1ccccc1)=C(/Sc1ccccn1)c1ccccc1`, the EC50 in assay [2] and in assay [3] was > 112 µM (not active) throughout.

As for `COc1cc(OC)cc(C(=O)Nc2ccc3c(c2)OCCO3)c1`, the figures for the EC50 in [2] and in assay [3] were 6.36 µM (active) and 3.95 µM (active), respectively.

`CN(C)C(=O)CN1C(=O)C2CC=C(Cl)CC2C1=O` (centres undefined): the EC50 in assay [2] and in assay [3] was > 112 µM (not active) each time.

Take `Cn1c(S)nnc1-c1cnn(-c2ccccc2)c1N`: the EC50 in assay [2] was 4.85 µM (active); in [3], > 112 µM (not active).

On to `COc1ccc(C(=O)NC2CCSc3ccccc32)cc1` (centres undefined), for which the EC50 in assay [2] and in assay [3] was > 112 µM (not active) in each case.

In the case of `CCCCCC(=O)Nc1nc(C)c(-c2csc(Nc3cc(OC)ccc3OC)n2)s1`, the AC50 in assay [5] is 1.29 µM (active).

For the compound `COc1cc(-c2nc(-c3ccc(NC(=O)c4ccc(Br)o4)cc3)no2)cc(OC)c1OC`, the AC50 in assay [5] was 0.725 µM (active).

With `CCOC(=O)C1(Cc2ccccc2)CCN(Cc2ccc(C)s2)CC1`, in [1], the EC50 was 0.133 µM (active).

For the compound `COc1cc2c(cc1OC)CN(C(=O)c1cc(=O)c3ccccc3o1)CC2`, the concentration for a half-maximal effect (EC50) was 14.1 µM (active) in assay [6], > 150 µM (inconclusive) in assay [7], 18.6 µM (active) in assay [8] and 43.3 µM (active) in [9].

As to `COc1cc(C2NCC(c3ccc(Cl)cc3Cl)c3c2[nH]c2ccccc32)cc(OC)c1OC` (centres undefined), the AC50 in [5] is 3.7 µM (active).

Turning to `Cc1cnc(C(=O)N2CCCC(C(=O)c3ccc(Cl)cc3C)C2)cn1` (centres undefined), the EC50 in [2] and in assay [3] was > 112 µM (not active) in each case.

On to `O=C(CCC(=O)c1cccs1)Nc1ccc(N2CCCCC2)cc1`, for which the AC50 in [4] is 6.49 µM (active).

In the case of `CCCn1c(SCC(=O)c2ccc3c(c2)NC(=O)CO3)nc2ccccc21`, in assay [10], the EC50 was 22.4 µM (active).

As for `O=S(=O)(c1ccccc1)c1cc(O)ccc1O`, the AC50 in assay [4] was 6.08 µM (active).

Take `CC(=O)Oc1ccc(-c2cc3c(OC(C)=O)cc(OC(C)=O)cc3oc2=O)cc1`: the EC50 was 13.7 µM (active) in assay [2] and > 112 µM (not active) in assay [3].

Turning to `CC1(c2ccccc2)CC(C)(C)N(C(=O)C2CCCO2)c2ccccc21` (centres undefined), the EC50 in assay [1] was 3.76 µM (active).

Take `CC(=O)OCCCN1C(=O)c2cccc3cc(Br)cc(c23)C1=O`: the EC50 in assay [1] is 0.211 µM (active).

As for `CN1CCN(c2ccc(NC(=O)c3ccc(Cl)cc3)cn2)CC1`, in assay [5], the AC50 is 19.8 µM (active).

`CC(C)N=C(S)N1CCN(C/C=C/c2ccccc2)CC1`: in [1], the EC50 is 4.73 µM (active).

Take `COc1ccc(C(CNC(=O)c2oc3ccc(F)cc3c2C)N2CCCCC2)cc1` (centres undefined): the EC50 in assay [1] was 1.88 µM (active).

As for `COc1ccccc1NC(=O)c1cc(O)nc2ccccc12`, the AC50 in assay [4] is 0.202 µM (active).

Take `Cc1c(C(=O)c2ccc(Cl)c([N+](=O)[O-])c2)c2ccccn2c1CCC#N`: the EC50 in assay [6] is > 150 µM (not active); in assay [7], > 150 µM (inconclusive); in assay [8], > 150 µM (not active); in assay [9] it was > 150 µM (not active).

For the compound `O=C(NCCCn1ccnc1)C(=O)NCC(c1ccco1)N1CCN(c2ccccc2)CC1` (centres undefined), the AC50 in assay [4] is 3.74 µM (active).

Turning to `NC(=O)CC(NC(=O)Cc1cccc2ccccc12)c1ccc(N2CCc3ccccc3C2)c([N+](=O)[O-])c1` (centres undefined), the AC50 in [5] was 12.2 µM (active).

On to `CCOC(=O)CSc1nc2c(sc(=S)n2-c2ccccc2OC)c(=O)n1-c1ccccc1OC`, for which the EC50 in [1] is 2.37 µM (active).

Turning to `CSc1ncccc1C(=O)OCC(=O)Nc1ccc(C)c(S(=O)(=O)N2CCOCC2)c1`, the AC50 in [11] was 53.2 µM (active).

For the compound `COc1ccc(N2CCN(C(=O)CCn3nnc4ccccc43)CC2)cc1`, in assay [4], the AC50 was 6.11 µM (active).

For `Cc1ccc(C(=O)N/N=C\c2ccc(-c3ccc(Cl)c(Cl)c3)o2)cn1`, the AC50 in [5] is 3.71 µM (active).

In the case of `Cc1ccc(S(=O)(=O)N(C)C[C@H]2Oc3ncc(Br)cc3C(=O)N([C@@H](C)CO)C[C@@H]2C)cc1`, the AC50 in assay [11] is 4.57 µM (active); in [12], 5.51 µM (active).

For the compound `COc1cccc2c(N/N=C/c3ccccc3)cc(C)nc12`, the AC50 in assay [4] is 6.41 µM (active).

With `O=C(N/N=C/c1cc(Cl)ccc1O)C(=O)Nc1ccccc1OC(F)(F)C(F)F`, the results for the AC50 in assay [13] and in [5] were 2.7 µM (active) and 2.35 µM (active), respectively.

As for `COc1cc(/C=N/n2c(C)nnc2S)ccc1OCc1ccccc1`, in assay [4], the AC50 is 0.861 µM (active).

`O=C(C1CCCCC1)N1CC(=O)N2[C@H](CO)[C@@H](c3ccc(C#CCc4ccccc4)cc3)[C@@H]2C1`: the AC50 in assay [14] was 5.61 µM (active).

As for `C[C@H]1CN([C@@H](C)CO)C(=O)c2c(c3ccccc3n2C)-c2ccccc2CO[C@@H]1CN(C)S(=O)(=O)c1ccc(C(F)(F)F)cc1`, the AC50 in [14] was 4.6 µM (active).

In the case of `CCS(=O)(=O)N1CCC2(CC1)CN(Cc1cc(F)ccc1F)[C@H](CO)c1c2c2ccc(OC)cc2n1C`, in [14], the AC50 was 6.16 µM (active).

Turning to `OC[C@@H]1Nc2ccc(C3=CCCCC3)cc2[C@@H]2[C@H]1CCN2Cc1nccs1`, the AC50 in assay [14] was 6.24 µM (active).

As for `N#C[C@@H]1[C@H](c2ccccc2-c2cccc(F)c2)[C@H](CO)N1C(=O)C1CCCC1`, the half-maximal activity concentration (AC50) in assay [14] was 2.8 µM (active).

As to `C/C=C/c1ccc([C@@H]2[C@H]3CNC[C@@H]2N3Cc2cc(F)ccc2F)cc1`, the AC50 in [14] was 4 µM (active).

Take `C[C@H]1CN([C@@H](C)CO)C(=O)c2c(c3ccccc3n2C)-c2ccccc2CO[C@@H]1CN(C)Cc1ccc(Oc2ccccc2)cc1`: the AC50 in assay [14] is 1.76 µM (active).

Take `COc1cccc(CN2CC3(CN(Cc4ccccn4)C3)c3c([nH]c4cc(OC)ccc34)[C@@H]2CO)c1`: the AC50 in assay [14] was 6.62 µM (active).

As a reminder, the EC50 is the concentration at which the effect is half-maximal. The AC50 is the concentration giving half of the maximal activity seen.

Values taken from ChEMBL document CHEMBL1201862, “PubChem BioAssay data set” (2004).
